Test results published in patent publication US20090074766A1, “Methods of inhibiting HIV-2 infection” (priority 2007, published 2009).
Read-outs that look alike come from different tables or passages of the source.

What was measured:
[1] = tested on: HIV-1JR-FL envelope-mediated membrane fusion (HeLa-EnvJRFL and CEM NKR-CCR5 cells); test: cell-based; set-up: CI90: unit not given beside the values
Method: (§1) The HIV-1 RET assay has been described in detail previously (Litwin et al., 1996). Briefly, fluorescein octadecyl ester (F18; Molecular Probes, Eugene, Oreg.; 5 mg/ml in ethanol), was diluted 1:800 in DMEM labeling medium (DMEM; Invitrogen, Carlsbad, Calif.) with 10% fetal bovine serum (FBS; HyClone, Logan, Utah) and adjusted to an A506 of 0.34±10%. Octadecyl rhodamine B chloride (R18; Molecular Probes; 10 mg/ml in ethanol) was diluted 1:2050 in labeling medium and adjusted to an A565 of 0.52±10%. Both dyes were further diluted 2-fold by addition to cells in T75-cm^2 flasks. HeLa-EnvJRFL and CEM NKR-CCR5 cells were incubated overnight in F18- and R18-containing culture medium, respectively. The following day, medium from HeLa-EnvJRFL cells was removed and 10 ml of 0.5 mM EDTA was added and incubated at 37° C. for 5 min. EDTA was removed and the flask was returned to the incubator for another 5 min followed by striking of the flask to dislodge cells. […] Suspension CEM NKR-CCR5 cells were added directly to a separate 50-ml conical centrifuge tube. Both cell lines were centrifuged at 300×g for 5 min. The supernatant was discarded and cells were resuspended in 10 ml of PBS-/15% FBS. The centrifugation/wash step was repeated twice, after which the cells were counted and concentrations adjusted to 1.5×10^6 cells/ml. Ten μl of each cell type (15,000 cells) were seeded into wells of a 384-well plate. Inhibitor compounds were added immediately thereafter to bring the final well volume to 40 μl, and the plates were incubated for 4 h at 37° C. Compounds were tested individually and in combination at a fixed molar ratio or mass ratio over a range of serial dilutions. The plates were then read on a fluorescence plate reader (Victor^2, Perkin Elmer, Boston, Mass.) using the excitation/emission filter combinations shown in Table 6.
(§2) The “% RET” was calculated according to the following formula after subtraction of background (blank) readings: […]
(§3) The “% Inhibition” was calculated according to the following formula: […]
(§4) Fifty percent inhibition (IC50) values were determined by fitting the inhibition data with a non-linear, four-parameter, variable slope equation (GraphPad Prism, 4.02; GraphPad Software, San Diego, Calif.). Upper and lower inhibition values were constrained to 100% and 0%, respectively for curve fitting.
(§5) For testing, small molecule compounds were solubilized in dimethylsulfoxide (DMSO) to 10 mM and then diluted in DMSO to 200× the final concentration to be utilized in the antiviral assay. Serial dilutions of small molecules were conducted in DMSO. Subsequent dilutions were conducted in medium to achieve a final DMSO concentration in the assay of 0.5%. Peptides and mAbs were diluted in PBS in the absence of DMSO.
(§6) HeLa cells were engineered to express HIV-1 gp120/gp41 from the macrophage-tropic primary isolate JRFL as described (HeLa-EnvJRFL; Litwin et al., 1996). Briefly, the HIV-1LAI Env gene was excised from the plasmid pMA243 (Dragic et al., 1992) and the HIV-1JRFL Env gene was inserted. The HIV-1JRFL Env gene was amplified from the plasmid pUCFL112-1 (Koyanagi et al., 1987). The resulting plasmid, designated JR-FL-pMA243, was sequenced by standard methods and transfected into HeLa cells using lipofectin (Gibco BRL/Invitrogen, Carlsbad, Calif.). HeLa-EnvJRFL transfectants were selected in methotrexate (Sigma, St. Louis, Mo.) and cloned twice by limiting dilution. The transduced human T cell leukemia line CEM NKR-CCR5 cells were obtained from the NIH AIDS Research and Reference Program (Cat. No. 458).
(§7) The HIV-1 RET assay has been described in detail previously (Litwin et al., 1996). Briefly, fluorescein octadecyl ester (F18; Molecular Probes, Eugene, Oreg.; 5 mg/ml in ethanol), was diluted 1:800 in DMEM labeling medium (DMEM; Invitrogen, Carlsbad, Calif.) with 10% fetal bovine serum (FBS; HyClone, Logan, Utah) and adjusted to an A506 of 0.34±10%.

[2] = target: T1, CCR5 (Homo sapiens, UniProt P51681); test: Competition binding: inhibition of PRO 140-PE binding to CEM.NKR-CCR5 cells (flow cytometry)
T1 construct: host or cells: CEM.NKR-CCR5 (transduced human T cell leukemia line)
Method: Inhibition was assessed on the basis of both MFI (A) and percent cells gated (B).
Azide was added to block CCR5 internalization during the assay.

[3] = target: HIV-1JR-FL envelope-mediated membrane fusion (HeLa-EnvJRFL and CEM NKR-CCR5 cells) (Homo sapiens, UniProt P51681); test: cell-based; set-up: CI90: unit not given beside the values; details: for Mean Dose Reduction (2D7) / Mean Dose Reduction (Cpd in combination): 2D7 in combination with the labelled inhibitor, 1:1 molar ratio
Method: as §1, §2, §3, §4, §5, §6, §7

[4] = Phase 1b clinical trial: safety, immunogenicity, RANTES, coreceptor tropism (Trofile); type: in vivo, human
Text: All patients were screened prior to the study for the presence of virus that utilizes only CCR5 as the entry coreceptor., i.e., CCR5-tropic virus.
Where no CXCR4-using clones are identified in a pre-dose sample from a subject, the on-treatment CXCR4-using virus can be identified as being phylogenetically very distant from the CCR5 tropic baseline virus; in such a case, the emergence of a pre-dose or pre-treatment CXCR4-using virus, i.e., one that is present at baseline, but is not detected, may likely explain the D/M tropism in the subject, as opposed to a tropism switch.

[5] = human, in vivo
Method: Sera were diluted as appropriate and combined with L1.2-CCR5 cells, which are mouse pre-B lymphoma cells engineered to stably express human CCR5. […] Following incubation with test samples, cells were washed and combined with a FITC-labeled sheep antibody against human IgG4 (The Binding Site Limited, Cat. #AF009). Cells were washed again and analyzed by flow cytometry.
Serum was collected post-treatment, cryopreserved, and analyzed for PRO 140 levels. Peak serum concentrations ranged to […] at 0.1 mg/kg and […] at 0.5 mg/kg.

[6] = PRO 140 in combination with the labelled inhibitor, 1:1 molar ratio
[7] = labelled 1st inhibitor with 2nd inhibitor PRO 140, equimolar, mean ± SD of 4-12 assays
[8] = molar ratio PRO 140 to labelled inhibitor 1:5
[9] = molar ratio PRO 140 to labelled inhibitor 5:1
[10] = SCH-D (Drug 1) with TAK-779 (Drug 2), molar ratio 1:1
[11] = inhibitor tested individually, experiment depicted in FIG. 11B
[12] = labelled 1st inhibitor with 2nd inhibitor UK-427,857, equimolar
[13] = inhibitor tested individually, experiment depicted in FIG. 11A

Chain of HIV-1JR-FL envelope-mediated membrane fusion (HeLa-EnvJRFL and CEM NKR-CCR5 cells) (Homo sapiens, UniProt P51681) (P51681 whole entry, the tested form may be a part): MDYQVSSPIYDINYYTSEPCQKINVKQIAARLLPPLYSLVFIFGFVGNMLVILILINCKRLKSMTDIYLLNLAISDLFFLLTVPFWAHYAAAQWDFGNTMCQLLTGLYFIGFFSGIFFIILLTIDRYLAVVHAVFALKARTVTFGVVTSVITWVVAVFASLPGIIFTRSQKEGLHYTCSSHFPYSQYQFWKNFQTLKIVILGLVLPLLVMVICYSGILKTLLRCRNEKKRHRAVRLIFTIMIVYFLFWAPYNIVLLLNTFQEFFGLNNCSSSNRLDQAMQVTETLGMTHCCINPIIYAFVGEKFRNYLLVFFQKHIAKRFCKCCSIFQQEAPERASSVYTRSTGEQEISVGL
T1 sequence (P51681 whole entry): as the sequence (P51681 whole entry, the tested form may be a part) above

## COc1ccnc2[nH]cc(C(=O)C(=O)N3CCN(C(=O)c4ccccc4)C[C@H]3C)c12 [BMS-378806, (R)-N-(benzoyl)-3-methyl-N′-[(4-methoxy-7-azaindol-3-yl)-oxoacetyl]-piperazine]
[1]; [6]
  Mean CI (Combination Index at IC50): 1.21±0.21
  Mean Dose Reduction (Cpd in combination): 2.85 ± 0.76
  Mean Dose Reduction (PRO 140): 1.64 ± 0.30
[1]; PRO 140 in combination with the labelled inhibitor, molar ratio PRO 140 to inhibitor 1:5
  Mean Combination Index (at IC50): 1.55 ± 0.24
[1]; PRO 140 in combination with the labelled inhibitor, molar ratio PRO 140 to inhibitor 5:1
  Mean Combination Index (at IC50): 1.12 ± 0.10
[1]; [7]
  CI90: 1.1 ± 0.22
[1]; [8]
  Mean Dose Reduction (Cpd. in combination): 1.07 ± 0.31
  Mean Dose Reduction (PRO 140): 3.64 ± 0.73
[1]; [9]
  Mean Dose Reduction (Cpd. in combination): 8.88 ± 4.16
  Mean Dose Reduction (PRO 140): 1.14 ± 0.06

## COC[C@@H](c1ccc(C(F)(F)F)cc1)N1CCN(C2(C)CCN(C(=O)c3c(C)ncnc3C)CC2)C[C@@H]1C [SCH-D, 1-[(4,6-dimethyl-5-pyrimidinyl)carbonyl]-4-[4-[2-methoxy-1(R)-4-(trifluoromethyl)phenyl]ethyl-3(S)-methyl-1-piperazinyl]-4-methylpiperidine]
[2]; result in words (FIG. 12B)
  percent of cells gated for positive binding of PRO 140-PE: little impact
[3]
  Mean Dose Reduction (2D7): 3.25 ± 0.56
  Mean Dose Reduction (Cpd in combination): 4.04 ± 0.78
[3]; [10]
  Mean CI ± stdev: 1.12±0.32
  Mean DR (Drug 1): 1.48 ± 0.96
[3]; SCH-D and UK-427,857 1:1, experiment depicted in FIG. 11B
  CI90: 0.73
[3]; [11]
  IC90: 34 nM
[3]; read-out: IC90 of the combination, 1:1 fixed molar ratio combination of SCH-D and UK-427,857, FIG. 11B
  IC90: 31 nM
[1]; 1st inhibitor alone (Table 13)
  IC50: 3.2 nM
  IC90: 16 nM
[1]; [6]
  Mean Dose Reduction (Cpd in combination): 3.90 ± 0.71
  Mean Dose Reduction (PRO 140): 4.21 ± 0.96
[1]; labelled 1st inhibitor with 2nd inhibitor TAK-779, equimolar
  CI50: 1.3 ± 0.18
[1]; [12]
  CI50: 0.86 ± 0.03
  CI90: 0.75 ± 0.02
[1]; [8]
  Mean Dose Reduction (Cpd. in combination): 1.73 ± 0.19
  Mean Dose Reduction (PRO 140): 9.95 ± 2.03
[1]; [9]
  Mean Dose Reduction (Cpd. in combination): 8.44 ± 1.27
  Mean Dose Reduction (PRO 140): 1.92 ± 0.40

## Cc1nnc(C(C)C)n1C1CC2CCC(C1)N2CC[C@H](NC(=O)C1CCC(F)(F)CC1)c1ccccc1 (some centres unmarked) [UK-427,857]
[3]; [13]
  IC90: 21 nM
[3]; [11]
  IC90: 59 nM
[3]; read-out: IC90 of the combination, 1:1 fixed molar ratio combination of PRO 140 and UK-427,857, FIG. 11A
  IC90: 4.6 nM
[1]; [6]
  Mean Dose Reduction (Cpd in combination): 2.98 ± 0.65
  Mean Dose Reduction (PRO 140): 4.16 ± 0.41
[1]; [8]
  Mean Dose Reduction (Cpd. in combination): 1.58 ± 0.17
  Mean Dose Reduction (PRO 140): 11.31 ± 2.14
[1]; [9]
  Mean Dose Reduction (Cpd. in combination): 7.25 ± 2.19
  Mean Dose Reduction (PRO 140): 2.00 ± 0.35

B1: PRO 140: humanized IgG4,κ anti-CCR5 monoclonal antibody, humanized version of murine mAb PA14 (antibody, chains of the INN, looked up, V domains shown)
VH: EVQLVESGGGLVKPGGSLRLSCAASGYTFSNYWIGWVRQAPGKGLEWIGDIYPGGNYIRNNEKFKDKTTLSADTSKNTAYLQMNSLKTEDTAVYYCGSSFGSNYVFAWFTYWGQGTLVTVSS
VL: DIVMTQSPLSLPVTPGEPASISCRSSQRLLSSYGHTYLHWYLQKPGQSPQLLIYEVSNRFSGVPDRFSGSGSGTDFTLKISRVEAEDVGVYYCSQSTHVPLTFGQGTKVEIK
[4]; PRO 140 subjects (0.5 mg/kg group, day 8 only)
  subjects with dual/mixed tropism result post-treatment: 1/30
[4]; Phase 1b
  dose-limiting toxicity: No dose-limiting toxicity or obvious pattern of toxicity
  plasma RANTES (CCL5) chemokine levels: No change in plasma RANTES (CCL5) chemokine levels
  treatment related SAEs: No treatment related SAEs
[4]; all study groups (0.5, 2.0, 5.0 mg/kg)
  tolerability: well-tolerated
[5]
  terminal serum half-life: 240 to 288 h
[2]; based on percent cells gated, 5 nM PRO 140-PE
  EC90: 17 nM
[3]
  Mean Dose Reduction (2D7): 2.54 ± 0.13
  Mean Dose Reduction (Cpd in combination): 1.87 ± 0.07
[3]; [13]
  IC50: 2.9 nM
  IC90: 11 nM
[3]; [7]
  CI50: 0.96
